From patent publication US10793589B2, “Resorcinarene-based amphipathic compound and use thereof” (Industry-University Cooperation Foundation Hanyang …, priority 2016, dated 2020)
Entries after “also recorded” stand apart in the source; their conditions may differ.

How the values were obtained:
[1] = Critical micelle concentration by fluorescence dye diphenylhexatriene (DPH); type: physicochemical; conditions: DPH fluorescence
Description: A method of measuring the CMC is not particularly limited and may be any method generally known in the art. For example, the CMC may be measured according to a fluorescence staining method using diphenylhexatriene (DPH).
(§1) Specifically, critical micelle concentrations (CMCs) were measured using a fluorescence dye, diphenylhexatriene (DPH), and hydrodynamic radii (Rh) of micelles formed of each compound (1.0 wt %) were measured by a dynamic light scattering (DLS) experiment. Measured results are shown in Table 1 in comparison with values of DDM as an existing amphipathic molecule (detergent).

[2] = target: T1, human β2 adrenergic receptor (β2AR) (Homo sapiens, UniProt P07550); assay: β2AR stability, [3H]-dihydroalprenolol (DHA) ligand binding assay; type: biochemical; conditions: for maintaining the ligand binding characteristic of the receptor compared to DDM: 0 hour, CMC+0.2 wt %, [3H]-DHA
T1 construct: made in house
Description: FIGS. 10A and 10B illustrate a result of measuring the effect of RGAs on the stability of β2AR after (a) 0 hour and (b) over time. Protein-ligand binding characteristics were measured via ligand binding assay using [^3H]-dihydroalprenolol (DHA), and the measurement was carried out by sampling a protein sample at regular intervals during 2 days of storage at room temperature.
FIGS. 12A and 12B illustrate a result of measuring the effect of RMAs on the stability of β2AR after (a) 0 hour and (b) over time. Protein-ligand binding characteristics were measured via ligand binding assay using [^3H]-dihydroalprenolol (DHA), and the measurement was carried out by sampling a protein sample at regular intervals during 2 days of storage at room temperature.
An experiment was carried out to measure the structural stability of a human (32 adrenergic receptor (β2AR) and a G protein-coupled receptor (GPCR) caused by RGAs and RMAs. That is, a receptor purified with DDM was diluted with a buffer solution containing only each RGA and RMA without cholesteryl hemisuccinate (CHS) or a buffer solution containing CHS and DDM. The final concentration of the compound was CMC+0.2 wt %, and the ligand binding characteristic of the receptor was measured using [^3H]-dihydroalprenolol ([^3H]-DHA) binding.
Specifically, radioligand binding assay was carried out using the following method. β2AR was purified using 0.1% DDM according to the method described in a paper (Science, 2007, 318, 1266-1273.) written by D. M. Rosenbaum et al. and finally concentrated to about 10 mg/ml (about 200 μM). The β2AR purified with DDM was used to prepare a master binding mixture containing 10 nM [^3H]-dihydroalprenolol (DHA) supplemented with 0.5 mg/ml BSA in a 0.2% amphipathic compound (DDM, RGAs or RMAs). The receptor purified with DDM, RGAs or RMAs was incubated with 10 nM [^3H]-DHA at room temperature for 30 minutes. The mixture was loaded into a G-50 column, the flow-through was collected with 1 ml of a binding buffer (20 mM HEPES pH 7.5, 100 mM NaCl, supplemented with 0.5 mg/ml BSA and 20×CMC individual amphipathic compound, and the G-50 column was further filled with 15 ml of a scintillation fluid. Receptor-bound [^3H]-DHA was measured with a scintillation counter (Beckman). The binding capacity of [^3H]-DHA was measured and shown in a column graph. Each experiment was performed in triplicate.

[3] = Hydrodynamic radius and size distribution of micelles by dynamic light scattering (DLS); type: physicochemical; conditions: compound 1.0 wt %
Description: A method of measuring the radius of a micelle is not particularly limited and may be any method generally known in the art. For example, the radius may be measured by a dynamic light scattering (DLS) experiment.
as §1
Meanwhile, size distributions of the micelles formed by RGAs and RMAs were measured using DLS.

[4] = target: T2, uric acid-xanthine/H+ symporter (UapA) (Emericella nidulans, UniProt Q07307, G411V); assay: UapA structural/thermal stability (FSEC, CPM assay); type: biochemical, Aspergillus nidulans; conditions: FIG. 5 (RGAs, FSEC), FIG. 6 (RMAs, CPM assay 40° C. 150 min, CMC+0.04 or CMC+0.2 wt %)
T2 construct: GFP; made in house; host or cells: Saccharomyces cerevisiae FGY217
Description: FIGS. 5A and 5B are a set of graphs illustrating a result of measuring the thermal stability of UapA in an aqueous solution caused by RGAs or DDM via fluorescence-detection size exclusion chromatography (FSEC):
FIGS. 6A and 6B are a set of graph illustrating a result of measuring thermal denaturation profile of UapA protein in DDM and novel RMAs (RMA-Cs and RMA-CEs) used at CMC+0.04 wt % (a) or CMC+0.2 wt % (b). Protein stability was assessed by CPM assay carried out at 40° C. for 150 min.
An experiment was carried out to measure the structural stability of a uric acid-xanthine/H^+ symporter (UapA) isolated from Aspergillus nidulans caused by RGAs and RMAs. The structural stability of UapA was measured using a sulfhydryl-specific fluorophore, N-[4-(7-diethylamino-4-methyl-3-coumarinyl)phenyl] maleimide (CPM).
Specifically, UapAG411V1-11 (hereinafter, referred to as “UapA”) was expressed in combination with GFP in Saccharomyces cerevisiae FGY217 strains and isolated into a sample buffer (20 mM Tris (pH 7.5), 150 mM NaCl, 0.03% DDM, and 0.6 mM xanthine) according to the method described in the paper (Mol. Membr. Biol. 2013, 30, 32-42) written by J. Leung et al. The membranes containing UapA were diluted to a final protein concentration of 2.8 mg ml^−1 in PBS (pH 7.4) supplemented with either 1% DDM or 1% RMAs or RGAs. […]

[5] = target: T3, Salmonella typhimurium melibiose permease (MelB) (Salmonella typhimurium, UniProt P30878); assay: MelB extraction and solubility after 90 min incubation, SDS-PAGE and western blotting; type: biochemical; conditions: 55° C., 1.5 wt %
T3 construct: made in house; host or cells: E. coli DW2 (melB and lacZY deleted), plasmid pK95AHB/WT MelBSt/CH10
Description: FIGS. 9A and 9B illustrate a result of measuring the amount of a MelB protein dissolved in an aqueous solution after a MelB protein was extracted at four temperatures (0, 45, 55, and 65) using RGAs or DDM at a concentration of 1.5 wt % and then incubated at the same temperatures for 90 minutes:
RGAs were selected, and an experiment was carried out to measure the structural stability of a Salmonella typhimurium melibiose permease (MelB) caused by RGAs. A MelB protein was extracted from a membrane using RGAs or DDM, and the amount and structure of the protein thus extracted was then analyzed by performing SDS-PAGE and western blotting. In this case, the concentration of the used amphipathic compound was 1.5 wt %. The protein was extracted at four temperatures (0, 45, 55, and 65° C.) and then incubated at the same temperatures for 90 minutes. Subsequently, two kinds of performance of the compound, that is, protein extraction efficiency and protein stability were evaluated at the same time by measuring the amount of a protein which remained dissolved in an aqueous solution. The amount of a protein which was extracted and stabilized by an individual amphipathic molecule was expressed as a relative value (%) with respect to the amount of the entire protein included in a membrane sample not treated with an amphipathic molecule.
Specifically, a C-terminal 10-His-tagged Salmonella typhimurium melibiose permease (MelBSt) was expressed in E. coli DW2 cells (melB and lacZY) using plasmid pK95AHB/WT MelBSt/CH10. Cells were grown and membranes were prepared according to the method described in a paper (Nat. Commun. 2014, 5, 3009) written by A. S. Ethayathulla et al. A protein assay was carried out with a Micro BCA kit (Thermo Scientific, Rockford, Ill.). RGAs and DDM were evaluated to measure the stability of MelBSt according to the protocol described in a paper (Nat. Methods 2010, 7, 1003-1008) written by P. S. Chae et al. The membrane sample (final protein concentration of 10 mg/mL) containing MelBSt was incubated in a solubilization buffer containing 1.5% (w/v) DDM or RGAs (20 mM sodium phosphate, pH 7.5, 200 mM NaCl, 10% glycerol, and 20 mM melibiose) at four temperatures (0, 45, 55, and 65° C.) for 90 minutes. An insoluble material was removed by ultracentrifugation at 355,590 g at 4° C. for 45 minutes using a Beckman Optima™ MAX ultracentrifuge equipped with a TLA-100 rotor. A dissolved portion was separated by SDS-16% PAGE, and immunoblotting was then performed using a Penta-His-HRP antibody (Qiagen, Germantown, Md.). A membrane fraction containing 20 μg of protein without treatment was used to illustrate the overall MelB, and the treated samples were loaded into each well in equal volume. MelBSt was measured using the SuperSignal West Pico Chemiluminescent substrate by ImageQuant LAS 4000 Biomolecular Imager (GE Healthcare Life Sciences).

[6] = target: T1, human β2 adrenergic receptor (β2AR); assay: Size exclusion chromatography (SEC) of β2AR receptor-detergent complex; conditions: 20×CMC detergent
Description: FIG. 11 illustrates a result of evaluating the size characteristic of a (32AR protein-ligand binding complex formed of RGA-C11, RGA-C13, or DDM via a size exclusion chromatography (SEC) test.
In addition, a size exclusion chromatography (SEC) test was conducted. Specifically, β2AR purified with 0.1% DDM was loaded on a M1 Flag column in the presence of 2 mM CaCl2, and the column was washed with a DDM, RGA-C11 or RGA-C13 detergent buffer (20 mM HEPES pH 7.5, 100 mM NaCl, 0.2% individual amphipathic compound). The receptor was eluted with 20×CMC DDM, RGA-C11, or RGA-C13 with 5 mM EDTA and 0.2 mg/ml free Flag peptide. The eluate was further added to a Superdex-200 10/300 GL column (GE Healthcare) at 0.5 ml/min, and UV absorbance at 280 nm was recorded. The running buffer contained 20 mM HEPES pH 7.5, 100 mM NaCl, 20×CMC individual detergent (DDM, RGA-C11 and RGA-C13).

T1 sequence (P07550 whole entry): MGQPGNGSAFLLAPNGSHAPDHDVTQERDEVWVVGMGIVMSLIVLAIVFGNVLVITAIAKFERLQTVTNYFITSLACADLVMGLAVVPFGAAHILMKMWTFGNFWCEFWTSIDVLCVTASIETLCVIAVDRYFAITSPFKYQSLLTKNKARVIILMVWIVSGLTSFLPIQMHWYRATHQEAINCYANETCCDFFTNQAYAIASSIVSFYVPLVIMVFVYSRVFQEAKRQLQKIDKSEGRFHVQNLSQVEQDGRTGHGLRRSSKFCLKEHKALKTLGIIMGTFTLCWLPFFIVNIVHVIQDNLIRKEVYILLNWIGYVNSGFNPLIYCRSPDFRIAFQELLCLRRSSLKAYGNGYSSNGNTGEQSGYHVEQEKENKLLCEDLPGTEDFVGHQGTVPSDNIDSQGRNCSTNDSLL
T3 sequence (P30878 whole entry): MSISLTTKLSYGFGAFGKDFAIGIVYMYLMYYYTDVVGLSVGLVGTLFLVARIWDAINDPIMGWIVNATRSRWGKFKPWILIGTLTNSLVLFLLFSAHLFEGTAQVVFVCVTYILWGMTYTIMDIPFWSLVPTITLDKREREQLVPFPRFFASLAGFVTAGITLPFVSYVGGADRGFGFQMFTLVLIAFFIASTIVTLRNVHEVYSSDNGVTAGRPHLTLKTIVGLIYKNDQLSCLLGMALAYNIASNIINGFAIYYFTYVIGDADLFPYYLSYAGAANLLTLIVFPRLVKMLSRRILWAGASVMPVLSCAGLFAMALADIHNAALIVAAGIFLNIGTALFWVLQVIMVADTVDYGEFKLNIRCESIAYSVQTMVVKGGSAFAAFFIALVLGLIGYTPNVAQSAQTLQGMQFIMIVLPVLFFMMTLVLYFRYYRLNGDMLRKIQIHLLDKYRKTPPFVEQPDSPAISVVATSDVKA
T2 sequence (Q07307 12-574 G411V): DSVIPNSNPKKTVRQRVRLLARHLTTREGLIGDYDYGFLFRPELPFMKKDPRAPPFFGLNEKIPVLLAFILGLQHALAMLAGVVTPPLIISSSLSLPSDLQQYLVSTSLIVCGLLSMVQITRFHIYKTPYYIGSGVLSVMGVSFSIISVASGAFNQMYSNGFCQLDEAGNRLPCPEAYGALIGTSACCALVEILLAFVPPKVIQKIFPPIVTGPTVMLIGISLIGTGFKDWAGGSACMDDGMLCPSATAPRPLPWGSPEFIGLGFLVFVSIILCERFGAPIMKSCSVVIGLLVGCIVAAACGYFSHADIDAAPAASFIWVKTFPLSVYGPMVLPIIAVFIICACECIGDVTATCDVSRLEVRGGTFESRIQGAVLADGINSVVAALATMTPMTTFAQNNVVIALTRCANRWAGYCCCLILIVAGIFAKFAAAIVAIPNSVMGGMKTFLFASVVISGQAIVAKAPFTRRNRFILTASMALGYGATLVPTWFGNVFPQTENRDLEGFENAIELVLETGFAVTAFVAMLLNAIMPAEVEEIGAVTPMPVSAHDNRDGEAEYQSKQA

SMILES | CMC [1] | CMC (wt %) [1] | maintaining the ligand binding characteristic of the receptor compared to DDM [2] | Rh (nm), hydrodynamic radius of micelles [3] | ability to maintain the UapA protein in a folded state compared to DDM [4] | ability to maintain the ligand binding of the receptor over time compared to DDM ([2]; 2 days at room temperature, early stage (0 to 12 h)) | MelB protein extraction efficiency and solubility [5] | size of receptor-detergent complex [6]
CCCCCCCC[C@H]1c2cc(c(OCCO[C@@H]3OC(CO)[C@@H](O)[C@H](O)C3O)cc2OCCO[C@@H]2OC(CO)[C@@H](O)[C@H](O)C2O)[C@H](CCCCCCCC)c2cc(c(OCCO[C@@H]3OC(CO)[C@@H](O)[C@H](O)C3O)cc2OCCO[C@@H]2OC(CO)[C@@H](O)[C@H](O)C2O)[C@@H](CCCCCCCC)c2cc(c(OCCO[C@@H]3OC(CO)[C@@H](O)[C@H](O)C3O)cc2OCCO[C@@H]2OC(CO)[C@@H](O)[C@H](O)C2O)[C@@H](CCCCCCCC)c2cc1c(OCCO[C@@H]1OC(CO)[C@@H](O)[C@H](O)C1O)cc2OCCO[C@@H]1OC(CO)[C@@H](O)[C@H](O)C1O (some centres unmarked) [RGA-C9] | ~7 µM | ~0.018 wt % | inferior to DDM | 2.9 ± 0.1 nm | highest effect | – | – | –
CCCCCCCCCC[C@H]1c2cc(c(OCCO[C@@H]3OC(CO)[C@@H](O)[C@H](O)C3O)cc2OCCO[C@@H]2OC(CO)[C@@H](O)[C@H](O)C2O)[C@H](CCCCCCCCCC)c2cc(c(OCCO[C@@H]3OC(CO)[C@@H](O)[C@H](O)C3O)cc2OCCO[C@@H]2OC(CO)[C@@H](O)[C@H](O)C2O)[C@@H](CCCCCCCCCC)c2cc(c(OCCO[C@@H]3OC(CO)[C@@H](O)[C@H](O)C3O)cc2OCCO[C@@H]2OC(CO)[C@@H](O)[C@H](O)C2O)[C@@H](CCCCCCCCCC)c2cc1c(OCCO[C@@H]1OC(CO)[C@@H](O)[C@H](O)C1O)cc2OCCO[C@@H]1OC(CO)[C@@H](O)[C@H](O)C1O (some centres unmarked) [RGA-C11] | – | ~0.0081 wt % | superior to DDM | 6.8 ± 0.2 nm | – | superior ability to maintain the ligand binding of the receptor compared to DDM | maintained MelB solubility better than DDM; also recorded: higher protein extraction efficiency than DDM | significantly smaller than that formed of DDM
